Results published in BigSolDB 2.1.

COc1c2occc2c(OC)c2c(=O)cc(C)oc12
solubility (mole fraction)
Conditions | in DMSO | in ethanol | in isopropanol | in methanol | in n-butanol | in water
298.15 K | 0.0128 | 0.00255 | 0.00195 | 0.00271 | 0.00355 | 1.33e-05
303.15 K | 0.0131 | 0.00282 | 0.002 | 0.00272 | 0.00375 | 1.23e-05
308.15 K | 0.0131 | 0.00298 | 0.00209 | 0.003 | 0.00372 | 1.88e-05
313.15 K | 0.0132 | 0.00311 | 0.00228 | 0.00314 | 0.00399 | 1.88e-05
318.15 K | 0.0141 | 0.00338 | 0.00233 | 0.00318 | 0.00435 | 3.69e-05
323.15 K | 0.0152 | 0.00338 | 0.00253 | 0.00332 | 0.00529 | 9.02e-05

Conditions | solubility (mole fraction)
in PEG-200, 298.15 K | 0.00171
in PEG-200, 303.15 K | 0.00149
in PEG-200, 308.15 K | 0.00173
in PEG-200, 313.15 K | 0.00199
in PEG-200, 318.15 K | 0.00202
in PEG-200, 323.15 K | 0.00231
in PEG-400, 298.15 K | 0.00438
in PEG-400, 303.15 K | 0.00425
in PEG-400, 308.15 K | 0.00448
in PEG-400, 313.15 K | 0.00453
in PEG-400, 318.15 K | 0.00448
in PEG-400, 323.15 K | 0.00511
